Values after ≈ are worked out from the molar mass of the structure shown. Numbered stars: 1 amine (or outer) side, 2 acyl side, 3 side chain; on linkers, the order of the positions; unused ones are H or OH. Square brackets hold non-standard residues; d marks the D form. Peptide text beside a SMILES is read from it. dAla(ψthiazole) = C[C@@H](N[*:1])c1nc(C(=O)[*:2])cs1; Trp(4-OMe) = COc1cccc2[nH]cc(C[C@H](N)C(=O)O)c12; X1 = CC(=O)[C@](C)(N[*:1])C(=O)[*:2]; dNMeY = CN[C@H](Cc1ccc(O)cc1)C(=O)O; Dhb = C/C=C(\N)C(=O)O; Sar = CNCC(=O)O
How the values were obtained:
Human alphaherpesvirus 1 [1] = experiment: Antiviral activity against HSV-1 106 infected in African green monkey Vero cells assessed as reduction in virus induced cytopathogenicity by plaque reduction assay; type: functional, organism-based; settings: Human alphaherpesvirus 1, 106, Vero
[2] = Cytotoxicity against African green monkey Vero cells assessed as reduction in cell viability measured after 72 hrs by MTT assay; type: toxicity, cell-based; settings: chlorocebus sabaeus
Human alphaherpesvirus 1 [3] = experiment: Antiviral activity against HSV-1 KOS infected in African green monkey Vero cells assessed as reduction in virus induced cytopathogenicity by plaque reduction assay; type: functional, organism-based; settings: Human alphaherpesvirus 1, KOS
Human alphaherpesvirus 1 [4] = experiment: Antiviral activity against HSV-1 153 infected in African green monkey Vero cells assessed as reduction in virus induced cytopathogenicity by plaque reduction assay; type: functional, organism-based; settings: Human alphaherpesvirus 1, 153, Vero
Human alphaherpesvirus 1 [5] = experiment: Antiviral activity against HSV-1 blue infected in African green monkey Vero cells assessed as reduction in virus induced cytopathogenicity by plaque reduction assay; type: functional, organism-based; settings: Human alphaherpesvirus 1, blue
SARS-CoV-2 [6] = experiment: Antiviral activity against SARS-CoV-2 RG2674 infected in African green monkey Vero cells assessed as reduction in virus-induced cytopathic effect incubated for 5 days by microscopic analysis; type: functional, organism-based; settings: Severe acute respiratory syndrome coronavirus 2, RG2674, Vero, 120 h
[7] = Cytotoxicity against African green monkey Vero E6 cells assessed as reduction in cell growth incubated for 24 hrs by WST-8 assay; type: toxicity, cell-based, Vero C1008; settings: chlorocebus sabaeus
[8] = target: T1, Replicase polyprotein 1ab (Severe acute respiratory syndrome coronavirus 2, UniProt P0DTD1); experiment: Inhibition of SARS-CoV-2 3CL protease
Influenza A virus = experiment: Antiviral activity against influenza A virus (H1N1/A/WSN/33) infected in MDCK cells assessed as inhibition of cytopathic effect incubated for 48 hrs by MTT assay; type: functional, organism-based; settings: H1N1/A/WSN/33, MDCK
[9] = test system: Human immunodeficiency virus 2; experiment: Antiviral activity against HIV-2 ROD infected in human MT4 cells assessed as protection against virus induced cytopathic effect and measured after 5 days by MTT spectrophotometric assay; type: functional, organism-based; settings: Human immunodeficiency virus 2, ROD, MT4, 120 h
[10] = target: T1, Replicase polyprotein 1ab; experiment: Inhibition of SARS-CoV-2 3CL protease by FRET assay
SARS-CoV-2 [11] = experiment: Antiviral activity against SARS-CoV-2 B.1.1.7 infected in human Calu-3 cells assessed as inhibition of viral infection measured after 48 hrs by Hoechst 33342 staining based analysis; type: functional, organism-based; settings: Severe acute respiratory syndrome coronavirus 2, B.1.1.7, Calu-3, 48 h
SARS-CoV-2 [12] = experiment: Antiviral activity against SARS-CoV-2 […] B.1.351 Beta infected in human 293TA cells assessed as reduction of viral growth measured after 48 hrs by luciferase assay; type: functional, organism-based; settings: Severe acute respiratory syndrome coronavirus 2, […] B.1.351 Beta
Calu-3 = experiment: Cytotoxicity against human Calu-3 cells assessed as reduction in cell viability measured after 48 hrs by Hoechst 33342 staining based analysis; type: functional
[13] = test system: Human immunodeficiency virus 1; experiment: Antiviral activity against HIV1 infected in C8166 cells assessed as reduction in viral replication measured after 3 days by ELISA; type: functional, organism-based
[14] = Cytotoxicity against human C8166 cells assessed as reduction in cell growth by MTT assay; type: toxicity, cell-based
Human alphaherpesvirus 1 [15] = experiment: Antiviral activity against HSV-1 at 25 uM relative to control; type: functional
Human alphaherpesvirus 1 [16] = experiment: Antiviral activity against HSV-1 infected in African green monkey Vero cells by plaque reduction assay; type: functional, organism-based; settings: Human alphaherpesvirus 1, Vero
Human alphaherpesvirus 2 = experiment: Antiviral activity against HSV-2 186 infected in African green monkey Vero cells assessed as reduction in virus induced cytopathogenicity by plaque reduction assay; type: functional, organism-based; settings: Human alphaherpesvirus 2, Vero
Human alphaherpesvirus 3 = experiment: Antiviral activity against VZV infected HFF cells assessed as reduction in viral replication; type: functional, organism-based; settings: Human alphaherpesvirus 3, HFF
[17] = test system: Human immunodeficiency virus 1; experiment: Antiviral activity against HIV1; type: functional, organism-based
[18] = test system: Human immunodeficiency virus 1; experiment: Antiviral activity against wild type HIV-1 IIIB infected in human MT4 cells assessed as protection against virus-induced cytopathic effect incubated for 5 days by MTT assay; type: functional, organism-based; settings: Human immunodeficiency virus 1, IIIB, MT4, 120 h
[19] = test system: Human immunodeficiency virus 1; experiment: Antiviral activity against HIV1 A17 infected in human C8166 cells assessed as protection against virus-induced cytopathic effect incubated for 5 days by MTT assay; type: functional, organism-based; settings: Human immunodeficiency virus 1, A17, C8166, 120 h
[20] = test system: Human immunodeficiency virus 1; experiment: Antiviral activity against HIV1 9495 infected in human C8166 cells assessed as protection against virus-induced cytopathic effect incubated for 5 days by MTT assay; type: functional, organism-based; settings: Human immunodeficiency virus 1, 9495, C8166, 120 h
[21] = test system: Human immunodeficiency virus 2; experiment: Antiviral activity against HIV-2 ROD infected in C8166 cells assessed as reduction in viral replication measured after 3 days by ELISA; type: functional, organism-based; settings: Human immunodeficiency virus 2, ROD, C8166, 72 h
[22] = test system: Human immunodeficiency virus 2; experiment: Antiviral activity against wild type HIV-2 CBL-20 infected in human MT4 cells assessed as protection against virus-induced cytopathic effect incubated for 5 days by MTT assay; type: functional, organism-based; settings: Human immunodeficiency virus 2, CBL-20, MT4, 120 h
[23] = Cytotoxicity against human MT4 cells assessed as reduction in cell viability incubated for 5 days by MTT assay; type: toxicity, cell-based; settings: time 5 day
SARS-CoV-2 [24] = experiment: microbe, parasite or virus in culture; settings: Severe acute respiratory syndrome coronavirus 2, NRC-03-nhCoV, Vero C1008, 72 h
[25] = target: Human immunodeficiency virus type 1 reverse transcriptase (Human immunodeficiency virus 1, UniProt Q72547); experiment: Inhibition of HIV-1 NL4-3 reverse transcriptase by RT-PCR analysis
A549 = experiment: Cytotoxicity against human A549 cells assessed as reduction in cell growth incubated for 5 days by MTS assay; type: functional; settings: A549, 120 h, time 5 day

Question: For `COc1ccc(C[C@@H]2NC(=O)[C@@H]3CCCN3C(=O)[C@H](C(C)C)NC(=O)[C@@H](Cc3ccc(O)cc3)N(C)C(=O)[C@H](Cc3ccc(OC)cc3)NC2=O)cc1` (cyclo(PY(Me)Y(Me)[dNMeY]V)), which EC50 (Human alphaherpesvirus 1 [1]) is on record?
Answer: The EC50 was 10.4 µM.

Question: And the CC50 at 72 h [2]?
Answer: The CC50 at 72 h was 209 µM.

Question: And the EC50 (Human alphaherpesvirus 1 [3])?
Answer: The EC50 was 7.9 µM.

Question: And the EC50 (Human alphaherpesvirus 1 [4])?
Answer: Its EC50 is 8.28 µM.

Question: What about the EC50 (Human alphaherpesvirus 1 [5]) of the same compound?
Answer: Its EC50 is 7.9 µM.

Question: With `Nc1ncnc2c1ncn2[C@@H]1O[C@H](CO)C[C@H]1O` [CORDYCEPIN] as the compound, how does the EC50 (SARS-CoV-2 [6]) read?
Answer: The EC50 was 2 µM.

Question: Which CC50 at 24 h [7] does the source give for `COc1cc(O)c(C(=O)[C@@H]2[C@H](CC=C(C)C)C(C)=CC[C@H]2c2ccccc2)c(O)c1` [PANDURATIN A] here?
Answer: Its CC50 at 24 h is 14.7 µM.

Question: And the IC50 [8]?
Answer: Its IC50 is 0.81 µM.

Question: Which EC50 (Influenza A virus) does the source give for `C/C=C1\NC(=O)[C@@H](C)NC(=O)CNC(=O)[C@](C)(C(C)=O)NC(=O)[C@H](Cc2c[nH]c3cccc(OC)c23)NC(=O)c2csc(n2)[C@@H](C)NC(=O)CN(C)C1=O` (cyclo([Dhb][Sar][dAla(ψthiazole)][Trp(4-OMe)][X1]G[dA])) here?
Answer: Its EC50 is 0.3 µM.

Question: Which EC50 [9] does the source give for `C=C(C)[C@@]12O[C@@]3(/C=C/C=C/C=C/CCC)O[C@@H]1[C@@H]1[C@@H]4O[C@]4(CO)[C@@H](O)[C@]4(O)C(=O)C(C)=C[C@H]4[C@@]1(O3)[C@H](C)[C@H]2OC(=O)/C=C/c1ccc(O)cc1` here?
Answer: Its EC50 is greater than 0.034 µM.

Question: With `CC(C)=CCC/C(C)=C/COc1c2ccoc2cc2oc(=O)ccc12` [BERGAMOTTIN] as the compound, how does the IC50 [10] read?
Answer: The IC50 was 9.64 µM.

Question: What about the IC50 (SARS-CoV-2 [11]) of the same compound?
Answer: The IC50 was 8.15 µM.

Question: And the IC50 (SARS-CoV-2 [12])?
Answer: The IC50 was 14.2 µM.

Question: What about the CC50 (Calu-3) of the same compound?
Answer: The CC50 was greater than 100 µM.

Question: For `CC(C)CC(=O)O[C@H]1/C=C/C=C\C(=O)O[C@H]2[C@@H](C)C[C@@H]3[C@]2(O)[C@H](O)[C@@]2(CO)O[C@H]2[C@H]2[C@H]4OC5(c6ccccc6)O[C@@H]([C@@H](C)[C@@]23O5)[C@@]4(O)[C@](C)(O)C[C@H]2CC[C@H]1[C@H]2C`, which EC50 [13] is on record?
Answer: Its EC50 is 0.76 10^-3nmol.

Question: What about the CC50 [14] of the same compound?
Answer: Its CC50 is 0.0222 µM.

Question: With `C=C1CC[C@]2(O)[C@H]1CC1=C(C)C(=O)OC1=C[C@]2(C)O` as the compound, how does the Activity (Human alphaherpesvirus 1 [15]) read?
Answer: Its Activity is 69.2%.

Question: For `CCCCCCCCCc1oc2c(O)ccc(-c3oc4cc(O)cc(O)c4c(=O)c3O[C@@H]3O[C@H](CO)[C@H](O)[C@H](O)[C@H]3O)c2c1C=O`, which EC50 (Human alphaherpesvirus 1 [16]) is on record?
Answer: The EC50 was 23.5 µM.

Question: And the EC50 (Human alphaherpesvirus 2)?
Answer: The EC50 was 36.4 µM.

Question: And the EC50 (Human alphaherpesvirus 3)?
Answer: Its EC50 is 23.5 µM.

Question: What about the CC50 at 72 h [2] of the same compound?
Answer: Its CC50 at 72 h is 166 µM.

Question: Which EC50 [17] does the source give for `O=c1cc(-c2ccc(O)c(-c3c(O)cc(O)c4c(=O)cc(-c5ccc(O)cc5)oc34)c2)oc2cc(O)cc(O)c12` [AMENTOFLAVONE] here?
Answer: The EC50 was 8.3 µM.

Question: What does the source list for `C=C(C)[C@]1(O)C[C@@H](C)[C@@]2(O)[C@H]([C@H]1OC(=O)/C=C/C=C/CCCCC)[C@@H]1O[C@]1(CO)[C@@H](O)[C@]1(O)C(=O)C(C)=C[C@H]12`?
Answer: EC50 [18]: 0.00872 µg/mL (≈ 0.016 µM); EC50 [19]: 0.00381 µg/mL (≈ 0.00697 µM); EC50 [20]: 0.0157 µg/mL (≈ 0.0286 µM); EC50 [21]: 0.0189 µg/mL (≈ 0.0345 µM); EC50 [22]: 0.0319 µg/mL (≈ 0.0584 µM); CC50 at 120 h [23]: 65.6 µg/mL (≈ 120 µM)

Question: With `O=C(O)[C@H]1O[C@@H](Oc2cc3oc(-c4ccccc4)cc(=O)c3c(O)c2O)[C@H](O)[C@@H](O)[C@@H]1O` [BAICALIN] as the compound, how does the CC50 at 24 h [7] read?
Answer: The CC50 at 24 h was greater than 200 µM.

Question: And the EC50 (SARS-CoV-2 [24])?
Answer: The EC50 was 27.9 µM.

Question: Which IC50 [25] does the source give for `COc1ccc(C[C@@H](CO)[C@H](COC(C)=O)Cc2ccc(OC)c(OC)c2)cc1OC` here?
Answer: Its IC50 is 12.2 µM.

Question: And the CC50 (A549)?
Answer: Its CC50 is 11.6 µg/mL (≈ 26.8 µM).

From ChEMBL document CHEMBL5537109, “Natural products as potential lead compounds to develop new antiviral drugs over the past decade” (Eur J Med Chem, 2023)
